In ChEMBL document CHEMBL4840376, “Berkeleylactones and a Citreohybriddione Analogue from Penicillium turbatum” (2021):
Where “and” joins values, the source holds several entries; their conditions need not be identical. Equal entries are not always repeated. Calls of active or inactive are those of the source. The rule behind the calls is not given here.

Columns and labels:
Staphylococcus aureus [1] = assay: Antibiotic activity against multidrug-resistant Staphylococcus aureus CAIRD142 assessed as reduction in bacterial growth by Alamar Blue dye based CLSI broth microdilution method; type: functional, organism-based
Staphylococcus aureus [2] = assay: Antibiotic activity against multidrug-resistant Staphylococcus aureus CAIRD116 assessed as reduction in bacterial growth by Alamar Blue dye based CLSI broth microdilution method; type: functional, organism-based
Staphylococcus aureus [3] = assay: Antibiotic activity against multidrug-resistant Staphylococcus aureus CAIRD148 assessed as reduction in bacterial growth by Alamar Blue dye based CLSI broth microdilution method; type: functional, organism-based
Streptococcus pyogenes = assay: Antibiotic activity against Streptococcus pyogenes assessed as reduction in bacterial growth by Alamar Blue dye based CLSI broth microdilution method; type: functional
Candida albicans = assay: Antibiotic activity against Candida albicans assessed as reduction in fungal growth by Alamar Blue dye based CLSI broth microdilution method; type: functional
Bacillus subtilis = assay: Antibiotic activity against Bacillus subtilis ATCC 6633 assessed as reduction in bacterial growth by Alamar Blue dye based CLSI broth microdilution method; type: functional
Staphylococcus aureus [4] = assay: Antibiotic activity against multidrug-resistant Staphylococcus aureus NE277 assessed as reduction in bacterial growth by Alamar Blue dye based CLSI broth microdilution method; type: functional, organism-based
Staphylococcus aureus [5] = assay: Antibiotic activity against Staphylococcus aureus ATCC 13709 assessed as reduction in bacterial growth by Alamar Blue dye based CLSI broth microdilution method; type: functional
Nakaseomyces glabratus = assay: Antibiotic activity against Candida glabrata assessed as reduction in fungal growth by Alamar Blue dye based CLSI broth microdilution method; type: functional
Bacillus anthracis = assay: Antibiotic activity against Bacillus anthracis assessed as reduction in bacterial growth by Alamar Blue dye based CLSI broth microdilution method; type: functional
Klebsiella pneumoniae = assay: Antibiotic activity against Klebsiella pneumoniae ATCC 10031 assessed as reduction in bacterial growth by Alamar Blue dye based CLSI broth microdilution method; type: functional, organism-based
Escherichia coli = assay: Antibiotic activity against Escherichia coli ATCC 25922 assessed as reduction in bacterial growth by Alamar Blue dye based CLSI broth microdilution method; type: functional, organism-based
Pseudomonas aeruginosa = assay: Antibiotic activity against Pseudomonas aeruginosa assessed as reduction in bacterial growth by Alamar Blue dye based CLSI broth microdilution method; type: functional, organism-based

SMILES | Activity (Staphylococcus aureus [1]) | Activity (Staphylococcus aureus [2]) | Activity (Staphylococcus aureus [3]) | MIC (Streptococcus pyogenes) | MIC (Candida albicans) | MIC (Bacillus subtilis) | Activity (Staphylococcus aureus [4]) | MIC (Staphylococcus aureus [5]) | MIC (Nakaseomyces glabratus) | MIC (Bacillus anthracis) | Activity (Klebsiella pneumoniae) | Activity (Escherichia coli) | Activity (Pseudomonas aeruginosa)
C[C@@H]1CCC(O)CCCCCC[C@H](OC(=O)CCC(=O)O)C(=O)/C=C/C(=O)O1 (some centres undefined) | Active | Active | Active | 250 µM and 100 µg/mL | > 500 µM and > 200 µg/mL | 125 µM and 50 µg/mL | Active | 32 µM and 13 µg/mL | > 500 µM and > 200 µg/mL | 64 µM and 26 µg/mL | – | – | –
COC(=O)[C@]12C(=O)[C@]3(C)O[C@](C)(C=C4[C@]5(C=O)CC[C@H](OC(C)=O)C(C)(C)[C@H]5CC[C@@]41C)[C@@]2(C)C3=O | – | – | – | – | > 500 µM and > 248 µg/mL | 250 µM and 124 µg/mL | – | 125 µM and 62 µg/mL | > 500 µM and > 248 µg/mL | 125 µM and 62 µg/mL | inactive | inactive | inactive
C[C@@H](O)CCCCCCCCC[C@H](OC(=O)CCC(=O)O)[C@H]1CCC(=O)O1 | – | – | – | > 500 µM and 193 µg/mL | 125 µM and 48 µg/mL | 500 µM and 193 µg/mL | – | 500 µM and 193 µg/mL | 500 µM and 193 µg/mL | > 500 µM and 193 µg/mL | inactive | inactive | inactive
C[C@@H]1CCCCCCCCC[C@H](O)[C@H](O)/C=C/C(=O)O1 | – | – | – | > 250 µM and > 71 µg/mL | > 250 µM and > 71 µg/mL | > 250 µM and > 71 µg/mL | – | 250 µM and 71 µg/mL | > 250 µM and > 71 µg/mL | 250 µM and > 71 µg/mL | – | – | –
C[C@@H]1CCCCCCCCC[C@H](OC(=O)CCC(=O)O)C(=O)/C=C/C(=O)O1 | Active | Active | Active | 125 µM and 48 µg/mL | 250 µM and 96 µg/mL | 32 µM and 12 µg/mL | Active | 8 µM and 3 µg/mL | 125 µM and 48 µg/mL | 16 µM and 6 µg/mL | – | – | –
C[C@@H]1CCCCCCCCC[C@H](OC(=O)CCC(=O)O)[C@H](O)CCC(=O)O1 | – | – | – | > 500 µM and > 45 µg/mL | > 500 µM and > 45 µg/mL | > 500 µM and > 45 µg/mL | – | > 500 µM and > 45 µg/mL | > 500 µM and > 45 µg/mL | > 500 µM and > 45 µg/mL | inactive | inactive | inactive
C[C@@H](O)CCCCCCCCC[C@H](O)[C@H]1CCC(=O)O1 | – | – | – | 16 µM and 5 µg/mL | > 500 µM and > 143 µg/mL | > 500 µM and > 143 µg/mL | – | 500 µM and 143 µg/mL | > 500 µM and > 143 µg/mL | > 500 µM and > 143 µg/mL | inactive | inactive | inactive
C[C@@H]1CCCCCCCCCC[C@H](O)/C=C/C(=O)O1 | – | – | – | 250 µM and 67 µg/mL | > 250 µM and > 67 µg/mL | 125 µM and 33 µg/mL | – | 125 µM and 33 µg/mL | > 250 µM and > 67 µg/mL | 125 µM and > 67 µg/mL | – | – | –
C[C@@H]1CCCCCCCCC[C@H](O)[C@H](OC(=O)CCC(=O)O)/C=C/C(=O)O1 | – | – | – | > 250 µM and > 90 µg/mL | > 250 µM and > 90 µg/mL | 125 µM and 45 µg/mL | – | 125 µM and 45 µg/mL | > 250 µM and > 90 µg/mL | 250 µM and > 90 µg/mL | – | – | –
C[C@@H]1CCCCCCCCC[C@H](OC(=O)CCC(=O)O)[C@H](O)/C=C/C(=O)O1 | – | – | – | > 250 µM and > 90 µg/mL | > 250 µM and > 90 µg/mL | > 250 µM and > 90 µg/mL | – | 125 µM and 45 µg/mL | > 250 µM and > 90 µg/mL | > 250 µM and > 90 µg/mL | – | – | –
